# In EP4316461A1, “A PRESERVATIVE COMPOSITION” (BRAIN Biotech AG, priority 2022, dated 2024):
# Tests used:
# Type in all cases: cell-based
# Clostridium perfringens = assay: microbe, parasite or virus in culture; details: Clostridium perfringens, DSM756, pH 3.8, read-out: Minimal Inhibitory Concentration (MIC)
# Aspergillus brasiliensis = assay: Antimicrobial activity (MIC); details: Aspergillus brasiliensis, DSM1988; Strain ID DSM 1988; potato dextrose broth pH 3.8; read-out: Minimal Inhibitory Concentration (MIC)
# Corynebacterium xerosis = assay: Antimicrobial activity (MIC); details: Corynebacterium xerosis, DSM20743; Strain ID DSM 20743; potato dextrose broth pH 3.8; read-out: Minimal Inhibitory Concentration (MIC)
# Bacillus cereus = assay: Antimicrobial activity (MIC); details: Bacillus cereus; Strain ID DSM4490; potato dextrose broth pH 3.8; read-out: Minimal Inhibitory Concentration (MIC)
# Botrytis cinerea = assay: Antimicrobial activity (MIC); details: Botrytis cinerea, DSM5145; Strain ID DSM 5145; potato dextrose broth pH 3.8; read-out: Minimal Inhibitory Concentration (MIC)
# [1] = test system: Lactobacillus paracasei ssp. paracasei; assay: Antimicrobial activity (MIC); details: Lacticaseibacillus paracasei, DSM46331; Strain ID DSM 46331; potato dextrose broth pH 3.8; read-out: Minimal Inhibitory Concentration (MIC)
# [2] = test system: Salmonella enterica ssp. enterica Ser. typhimurium; assay: Antimicrobial activity (MIC); details: Salmonella enterica, DSM 17058 / TYPHIMURIUM; Strain ID DSM 17058; potato dextrose broth pH 3.8; read-out: Minimal Inhibitory Concentration (MIC)
# [3] = test system: Gluconacetobacter liquefaciens; assay: Antimicrobial activity (MIC); details: Gluconacetobacter liquefaciens, DSM5603; Strain ID DSM 5603; potato dextrose broth pH 3.8; read-out: Minimal Inhibitory Concentration (MIC)
# Leuconostoc lactis = assay: Antimicrobial activity (MIC); details: Leuconostoc lactis, DSM20202; Strain ID DSM 20202; potato dextrose broth pH 3.8; read-out: Minimal Inhibitory Concentration (MIC)
# Cutibacterium acnes = assay: Antimicrobial activity (MIC); details: Cutibacterium acnes, DSM1897; Strain ID DSM 1897; potato dextrose broth pH 3.8; read-out: Minimal Inhibitory Concentration (MIC)
# Pseudomonas aeruginosa = assay: Antimicrobial activity (MIC); details: Pseudomonas aeruginosa, DSM1117; Strain ID DSM 1117; potato dextrose broth pH 3.8; read-out: Minimal Inhibitory Concentration (MIC)
# [4] = test system: Fusobacterium nucleatum subsp. vincentii; assay: Antimicrobial activity (MIC); details: Fusobacterium nucleatum, DSM19507; Strain ID DSM 19507; potato dextrose broth pH 3.8; read-out: Minimal Inhibitory Concentration (MIC)
# [5] = test system: Alicyclobacillus acidoterrestris; assay: Antimicrobial activity (MIC); details: Alicyclobacillus acidoterrestris, DSM2498; Strain ID DSM 2498; potato dextrose broth pH 3.8; read-out: Minimal Inhibitory Concentration (MIC)
smiles,measurement,setting,value
"C[C@@H]1O[C@@H](O[C@H]2[C@H](O[C@H]3CC[C@@]4(C)[C@@H](CC[C@]5(C)[C@@H]4CC=C4[C@@H]6CC(C)(C)CC[C@]6(C(=O)O)CC[C@]45C)[C@]3(C)CO)OC[C@H](O)[C@@H]2O)[C@H](O)[C@H](O[C@@H]2OC[C@@H](O)[C@H](O)[C@H]2O)[C@H]1O [A, Sapindoside B [30994-75-3]]",MIC,Clostridium perfringens,> 80 µg/mL
same,MIC,Aspergillus brasiliensis,> 80 µg/mL
same,MIC,Corynebacterium xerosis,> 80 µg/mL
same,MIC,Bacillus cereus,> 80 µg/mL
same,MIC,Botrytis cinerea,> 80 µg/mL
same,MIC,[1],> 80 µg/mL
same,MIC,[2],> 80 µg/mL
same,MIC,[3],140 µg/mL
same,MIC,Leuconostoc lactis,80 µg/mL
same,MIC,Cutibacterium acnes,> 80 µg/mL
same,MIC,Pseudomonas aeruginosa,> 80 µg/mL
same,MIC,[4],80 µg/mL
same,MIC,[5],40 µg/mL
